# Data reported in paper PMC10254843, “Discovery of New 2-Phenylamino-3-acyl-1,4-naphthoquinones as Inhibitors of Cancer Cells Proliferation: Searching for Intra-Cellular Targets Playing a Role in Cancer Cells Survival” (Molecules, 2023).
# How the values were obtained:
# CCN2 = test: RT-qPCR mRNA level of CCN2 in DU-145 cells; assay type: cell-based, human; conditions: DU145 cells, 24 h; compound 4 at 1 µM, compound 11 at 6 µM; normalized to B2M, 2^−∆∆Ct vs vehicle (1.00); mean ± SEM
# Experimental: (§1) The […] cells were cultured as previously mentioned. […] Afterwards, they were washed with phosphate-buffered saline. The cellular lysate was prepared with E.Z.N.A.®RNA-Lock Reagent (Omega Bio-tek, Norcross, GA, USA) to preserve and immediately stabilize the total RNA for the subsequent gene expression assays. The total RNA isolated from the cells using the E.Z.N.A.®HP Total RNA Isolation Kit (Omega Bio-tek) was reverse-transcribed to cDNA using the AffinityScript QPCR cDNA Synthesis Kit (Agilent Technologies, Santa Clara, CA, USA) and 1000 ng of the RNA sample.
# (§2) The cDNA synthesized was employed for qPCR using Brilliant III Ultra-Fast SYBR®Green QPCR Master Mix (Agilent Technologies) in an Mx3000P qPCR System (Agilent Technologies), employing a 96-well plate with 20 μL of PCR reaction per well and 10 pmol each of forward and reverse gene-specific primers. Nine genes were analyzed: B2M, Bcl2, CDC25A, CCN2, GSR, HDAC4, mTOR, TNF, TP53 and their quantitative real-time (qPCR) primer sequences are reported in Table S1 (supplementary material). The relative gene expressions were determined using Beta-2-microglobulin (B2M) as housekeeping, and the delta-delta Ct method (2^−∆∆Ct method) with regard to the vehicle-treated group (i.e., the reference group). Five biological replicates were used from each group (treated and reference group). […]
# Bcl-2 = test: RT-qPCR mRNA level of Bcl-2 in DU-145 cells; assay type: cell-based, human; conditions: DU145 cells, 24 h; compound 4 at 1 µM, compound 11 at 6 µM; normalized to B2M, 2^−∆∆Ct vs vehicle (1.00); mean ± SEM
# Experimental: as §1, §2
# [1] = system: T24 (Urinary bladder cancer cells); test: MTT cell survival assay, T24 urinary bladder cancer cells; assay type: cell-based; conditions: Homo sapiens; MTT test; cells incubated at 37 °C for 48 h (Table 1 footnote); mean ± SEM, n = 3
# Experimental: (§3) Human cancer cell lines from bladder (T24), prostate (DU–145), breast (MCF–7) and non-tumor HEK-293 cells were obtained from the American Type Culture Collection (ATCC, Manassas, VA, USA). The cultures were maintained at a density of 1–2 × 10^5 cells/mL and the medium was changed at 48- and 72-h intervals. They were cultured in high-glucose Dulbecco’s modified Eagle medium (Gibco, Grand Island, NY, USA) supplemented with 10% fetal calf serum, penicillin (100 U/mL) and streptomycin (100 μg/mL). All cultures were kept at 37 °C in 95% air/5% CO2 at 100% humidity. Phosphate-buffered saline (PBS) was purchased from Gibco. Cells were incubated at the indicated times at 37 °C with or without compounds 1–14 at various concentrations.
# (§4) The cytotoxicity of the compounds 1–14 was assessed by following the reduction of MTT (3-(4,5-Dimethylthiazol-2-yl)-2,5-diphenyltetrazolium bromide) to formazan blue. […] Doxorubicin was used as a standard chemotherapeutic agent (positive control). Cells were washed twice with warm PBS and further incubated with MTT (0.5 mg/mL) for 2 h at 37 °C. Blue formazan crystals were solubilized by adding 100 µL DMSO/well, and the optical density of colored solutions was subsequently read at 550 nm in a microplate reader Tecan infinite M200 Pro (Männedorf, Switzerland). The compounds 1–14 were dissolved in DMSO (stock solution at 100 mM) and further diluted to be evaluated at the following concentrations: 0 μM, 1 μM, 10 μM, 20 μM, 40 μM, 60 μM, 80 μM and 100 μM. Results are expressed as % of MTT reduction compared to untreated control conditions. The IC50 values were calculated using the GraphPad Prism 8.0.2 software (San Diego, CA, USA).
# TP53 = test: RT-qPCR mRNA level of TP53 in DU-145 cells; assay type: cell-based, human; conditions: DU145 cells, 24 h; compound 4 at 1 µM, compound 11 at 6 µM; normalized to B2M, 2^−∆∆Ct vs vehicle (1.00); mean ± SEM
# Experimental: as §1, §2
# mTOR = test: RT-qPCR mRNA level of mTOR in DU-145 cells; assay type: cell-based, human; conditions: DU145 cells, 24 h; compound 4 at 1 µM, compound 11 at 6 µM; normalized to B2M, 2^−∆∆Ct vs vehicle (1.00); mean ± SEM; * p < 0.05 vs vehicle
# Experimental: as §1, §2
# [2] = system: DU-145 (prostate cancer cells); test: MTT cell survival assay, DU-145 prostate cancer cells; assay type: cell-based; conditions: Homo sapiens, MTT test, cells incubated at 37 °C for 48 h (Table 1 footnote), mean ± SEM, n = 3
# Experimental: as §3, §4
# [3] = Half-wave potentials by cyclic voltammetry; assay type: physicochemical
# Experimental: Calculation of lipophilicity (ClogP) and molar refractivity (CMR) was assessed by using the ChemBioDraw Ultra 11.0 software and the obtained values are shown in Table 3. Redox potentials of 2-phenylamino-3-acyl-1,4-naphtoquinones 1–14 were measured by cyclic voltammetry at room temperature in acetonitrile as solvent using a platinum electrode and 0.1M tetraethylammonium tetrafluoroborate as the supporting electrolyte.
# CDC25A = test: RT-qPCR mRNA level of CDC25A in DU-145 cells; assay type: cell-based, human; conditions: DU145 cells, 24 h; compound 4 at 1 µM, compound 11 at 6 µM; normalized to B2M, 2^−∆∆Ct vs vehicle (1.00); mean ± SEM
# Experimental: as §1, §2
# GSR = test: RT-qPCR mRNA level of GSR in DU-145 cells; assay type: cell-based, human; conditions: DU145 cells, 24 h; compound 4 at 1 µM, compound 11 at 6 µM; normalized to B2M, 2^−∆∆Ct vs vehicle (1.00); mean ± SEM
# Experimental: as §1, §2
# [4] = system: non-tumorigenic HEK-293 (embryonic kidney cells); test: MTT cell survival assay, non-tumorigenic HEK-293 cells; assay type: cell-based; conditions: Homo sapiens, HEK293; MTT test; cells incubated at 37 °C for 48 h (Table 1 footnote); mean ± SEM, n = 3
# Experimental: as §3, §4
# HDAC4 = test: RT-qPCR mRNA level of HDAC4 in DU-145 cells; assay type: cell-based, human; conditions: DU145 cells, 24 h; compound 4 at 1 µM, compound 11 at 6 µM; normalized to B2M, 2^−∆∆Ct vs vehicle (1.00); mean ± SEM
# Experimental: as §1, §2
# [5] = system: HEK-293 cells/tumour cells; test: Mean selective index, HEK-293 vs tumour cells; assay type: cell-based, human; conditions: MSI = IC50 values HEK-293 cells/IC50 values tumour cells
# Experimental: The cytotoxicity of the compounds 1–14 was assessed by following the reduction of MTT (3-(4,5-Dimethylthiazol-2-yl)-2,5-diphenyltetrazolium bromide) to formazan blue. Cells were seeded into 96-well plates at a density of 10,000 cells/well for 24 h and then they were further incubated for 24 h with or without the quinones. Doxorubicin was used as a standard chemotherapeutic agent (positive control). Cells were washed twice with warm PBS and further incubated with MTT (0.5 mg/mL) for 2 h at 37 °C. Blue formazan crystals were solubilized by adding 100 µL DMSO/well, and the optical density of colored solutions was subsequently read at 550 nm in a microplate reader Tecan infinite M200 Pro (Männedorf, Switzerland). The compounds 1–14 were dissolved in DMSO (stock solution at 100 mM) and further diluted to be evaluated at the following concentrations: 0 μM, 1 μM, 10 μM, 20 μM, 40 μM, 60 μM, 80 μM and 100 μM. Results are expressed as % of MTT reduction compared to untreated control conditions. The IC50 values were calculated using the GraphPad Prism 8.0.2 software (San Diego, CA, USA).
# [6] = system: MCF-7 (mammary cancer cells); test: MTT cell survival assay, MCF-7 mammary cancer cells; assay type: cell-based; conditions: Homo sapiens, MCF7; MTT test; cells incubated at 37 °C for 48 h (Table 1 footnote); mean ± SEM, n = 3
# Experimental: as §3, §4
# TNF = test: RT-qPCR mRNA level of TNF in DU-145 cells; assay type: cell-based, human; conditions: DU145 cells, 24 h; compound 4 at 1 µM, compound 11 at 6 µM; normalized to B2M, 2^−∆∆Ct vs vehicle (1.00); mean ± SEM
# [7] = system: MCF-7 human breast cancer cell line; set-up: method as in PMID 23167798; conditions: cytotoxicity against MCF-7; cited from earlier work
Compound,Relative expression level (mRNA level) CCN2 (CCN2),Relative expression level (mRNA level) Bcl-2 (Bcl-2),IC50 [1],Relative expression level (mRNA level) TP53 (TP53),Relative expression level (mRNA level) mTOR (mTOR),IC50 [2],"−E^I½ (mV) ([3]; acetonitrile, platinum electrode, room temperature, negative of the potential)",half-wave potential ([3]; signed value),Relative expression level (mRNA level) CDC25A (CDC25A),Relative expression level (mRNA level) GSR (GSR),IC50 [4],Relative expression level (mRNA level) HDAC4 (HDAC4),MSI (mean selective index) [5],IC50 [6],Relative expression level (mRNA level) TNF (TNF),IC50 [7]
"O=C(C1=C(Nc2ccccc2)C(=O)c2ccccc2C1=O)c1ccccc1 [Compound 4, 2-(Phenylamino)-3-benzoylnaphthalene-1,4-dione]",0.95 ± 0.03,0.81 ± 0.05,15.8 ± 0.9 µM,0.94 ± 0.04,0.84 ± 0.06,0.82 ± 0.1 µM,695 mV,−695 mV,1.09 ± 0.10,0.95 ± 0.05,45.2 ± 6.59 µM,0.91 ± 0.05,6.2,5.16 ± 0.16 µM,1.20 ± 0.08,–
O=C(C1=C(Nc2ccccc2)C(=O)c2ccccc2C1=O)c1ccco1 [compound V],–,–,–,–,–,–,–,–,–,–,–,–,–,–,–,1.5 µM
